From patent US7511068B2, “Mercaptoimidazoles as CCR2 receptor antagonists” (Janssen Pharmaceutica, N.V., priority 2003, dated 2009)

Tested on: not given
Experiment: not given
Conditions: not given

Row | melting point [°C] | Compound
1 | 172.7 to 175.2 | CCC(c1ccc(Cl)c(Cl)c1)n1c(S)nc(C(=O)OC(C)(C)C)c1C#N (stereo not shown) [Compound 78]

Biological target: T1, CCR2 receptor (Homo sapiens, UniProt P41597)
T1 construct: host or cells: THP-1 human monocytic cell line
T1 sequence (P41597 1-360 isoform P41597-2): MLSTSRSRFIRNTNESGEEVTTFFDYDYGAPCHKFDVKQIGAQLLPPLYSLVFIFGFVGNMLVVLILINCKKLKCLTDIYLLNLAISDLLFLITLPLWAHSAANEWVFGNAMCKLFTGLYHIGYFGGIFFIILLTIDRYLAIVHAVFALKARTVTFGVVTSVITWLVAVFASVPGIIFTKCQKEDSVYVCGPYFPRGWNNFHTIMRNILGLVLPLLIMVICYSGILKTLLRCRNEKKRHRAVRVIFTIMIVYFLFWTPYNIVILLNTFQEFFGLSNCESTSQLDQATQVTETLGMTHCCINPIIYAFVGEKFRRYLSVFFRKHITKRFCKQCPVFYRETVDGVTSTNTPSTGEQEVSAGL
Experiment: Inhibition of MCP-1 induced Ca-flux in human THP-1 cells
Assay type: cell-based
Conditions: inhibition of specific MCP-1 (10^-7 M hMCP-1) induced Ca2+ flux in human THP-1 cells; pIC50 = -log IC50 (molar)
Protocol: C. Pharmacological Example Inhibition of MCP-1 Induced Ca-flux in Human THP-1 Cells
MCP-1 binding to the CCR2 receptor induces a rapid and transient intracellular release of Ca^2+ (secondary messenger) in several cell lines (Charo et al, PNAS 1994). Free Ca^2+ levels can be measured using a Ca^2+ sensitive dye. When the CCR2 receptor is blocked with a CCR2 receptor antagonist, the MCP-1 induced release of Ca^2+ is inhibited.
Human THP-1 cells (monocytic cell line, ATCC TIB-202) were cultured in RPMI 1640 medium supplemented with 10% fetal calf serum (FCS), 1% L-Glutamine, penicillin (50 U/ml) and streptomycin (50 μg/ml) (all GIBCO BRL, Gent). After centrifugation, cells were loaded for 30 minutes with the Ca^2+ sensitive fluorescent dye Fluo-3 AM (Molecular Probes, Leiden, Netherlands) (2 million cells/ml in RPMI medium containing 4 μM Fluo-3 AM, 20 mM HEPES, 0.1% Bovine Serum Albumin (BSA) and 5 mM probenecid). Excess dye was removed by 3-fold washing with buffer (5 mM HEPES, 140 mM NaCl, 1 mM MgCl2, 5 mM KCl, 10 mM glucose, 2.5 mM probenecid, 1.25 mM CaCl2, 0.1% BSA; all further incubations were done in this buffer). Cells were plated at a density of 150 000 cells/well in dark-wall 96-well plates (Costar, Cambridge, Mass.) and sedimented by centrifugation (1 minute). The cells were pre-incubated for 20 minutes with test compound. Then, 10^−7 M hMCP-1 (Bachem, Bubendorf, Switserland) was added. Changes in intracellular free Ca^2+ concentration were measured using the Fluorescent Imaging Plate Reader (FLIPR, Molecular Devices, Munchen, Germany). Fluorescence was recorded every second from 10 seconds before the addition of the MCP-1 till 2 minutes after the addition (first minute: 60 records with 1 second intervals, second minute 20 records with 3 second intervals).
The maximal fluorescence obtained during this time frame was used for further calculations.
Table 4 reports pIC50 values obtained in the above-described test for compounds of formula (I). pIC50 defines −log IC50 wherein IC50 is the molar concentration of the test compound which inhibits 50% of specific MCP-1 induced Ca^2+ flux.

Row | IC50 [nM] | Compound
2 | 813 | CCC(c1ccc(Cl)c(Cl)c1)n1c(S)nc(C(=O)OC(C)(C)C)c1C#N (stereo not shown) [Compound 78]
3 | 1780 | CCC(c1ccc(Cl)c(Cl)c1)n1c(C(=O)N(C)OC)c[nH]c1=S (stereo not shown) [Compound 106]
4 | 355 | CCC(c1ccc(Cl)c(Cl)c1)n1c(S)nc(C(=O)NC)c1C(=O)NC (stereo not shown) [Compound 107]
5 | 112 | CCC(c1ccc(Cl)c(Cl)c1)n1c(C(=O)OC)c(C(=O)N2CCCCC2)[nH]c1=S (stereo not shown) [Compound 108]
6 | 1150 | CCC(c1ccc(Cl)c(Cl)c1)n1c(C(=O)OC)c(C(=O)N2CCOCC2)[nH]c1=S (stereo not shown) [Compound 109]
7 | 112 | CCC(c1ccc(Cl)c(Cl)c1)n1c(C(=O)OC)c(C(=O)NCCO)[nH]c1=S (stereo not shown) [Compound 110]
8 | 240 | CCC(c1ccc(Cl)c(Cl)c1)n1c(C(N)=O)c(COC)[nH]c1=S (stereo not shown) [Compound 113]
9 | 1780 | CCC(c1ccc(Cl)c(Cl)c1)n1c(C(=O)NC)c(COC)[nH]c1=S (stereo not shown) [Compound 114]
10 | 1200 | CCC(c1ccc(Cl)c(Cl)c1)n1c(C(=O)NCCO)c(COC)[nH]c1=S (stereo not shown) [Compound 115]
11 | 8320 | CCC(c1cc(F)cc(F)c1)n1c(C(=O)OC)cnc1S (stereo not shown) [Compound 118]
12 | 871 | CCC(c1ccc(Cl)c(Cl)c1)n1c(C(=O)NNC(C)=O)c[nH]c1=S (stereo not shown) [Compound 119]
13 | 1050 | CCC(c1ccc(Cl)c(Cl)c1)n1c(C(=O)NNC=O)c[nH]c1=S (stereo not shown) [Compound 120]
14 | 4680 | CCC(c1ccc(Cl)cc1)n1c(C(=O)OC)cnc1S (stereo not shown) [Compound 123]
15 | 4270 | CCC(c1cc(F)c(F)c(F)c1)n1c(C(=O)OC)c[nH]c1=S (stereo not shown) [Compound 135]
16 | 2510 | CCC(c1ccc(F)c(F)c1)n1c(C(=O)OC)c(C(=O)OC(C)(C)C)[nH]c1=S (stereo not shown) [Compound 137]
17 | 176 | CCC(c1ccc(Br)c(Br)c1)n1c(C(N)=O)c[nH]c1=S (stereo not shown) [Compound 138]
18 | 166 | CCC(c1cc(F)c(F)c(F)c1)n1c(C(N)=O)c[nH]c1=S (stereo not shown) [Compound 143]
19 | 32.4 | CCCC(c1ccc(Cl)c(Cl)c1)n1c(C(=O)OC)c(C(N)=O)[nH]c1=S (stereo not shown) [Compound 149]
20 | 468 | COC(=O)c1[nH]c(=S)n(C(c2ccc(Cl)c(Cl)c2)c2ccc(Cl)c(Cl)c2)c1C(=O)OC [Compound 150]
21 | 299 | CCC(=O)c1c[nH]c(=S)n1C(CC)c1ccc(Cl)c(Cl)c1 (stereo not shown) [Compound 151]

Row | Compound | IC50 [nM]
22 | CCC(c1cc(F)cc(F)c1)n1c(C(=O)OC)c(C(=O)OC)[nH]c1=S (stereo not shown) [Compound 124] | 64.6
23 | CCC(c1cc(Cl)cc(Cl)c1)n1c(C(=O)OC)c(C(=O)OC)[nH]c1=S (stereo not shown) [Compound 130] | 1660
24 | CCC(c1ccc(F)c(F)c1)n1c(C(=O)OC)c(C(N)=O)[nH]c1=S (stereo not shown) [Compound 142] | 58.9
25 | CCC(c1cc(F)c(F)c(F)c1)n1c(C(=O)OC)c(C(=O)OC)[nH]c1=S (stereo not shown) [Compound 148] | 33.5
